# Laboratory results taken from article PMC12722308, “A phase 1 study of orally administered 5-fluoro-2’-deoxycytidine with tetrahydrouridine in patients with refractory solid tumors” (Cancer Chemotherapy and Pharmacology, 2025).
# Values joined by “and” are separate entries in the source; they are usually repeats but may differ in a detail not shown here. Equal values may be shown once. Read-outs that look alike come from different tables or passages of the source.
# How the values were obtained:
# [1] = Phase 1 dose escalation: adverse events (CTCAE v4.0), DLT, MTD/RP2D; type: in vivo, human; settings: orally once daily with 160 mg FdCyd on days 1–6 and 8–13 of each 21-day cycle (dose level 8)
# Description: FdCyd and THU were supplied by the NCI Division of Cancer Treatment and Diagnosis. Patients were administered both drugs orally in 21-day cycles, and dose escalation proceeded according to a traditional 3 + 3 design as per the dose escalation schema shown in Supplementary Table S1. […] Patients maintained a study diary to note any side effects or concurrent medications. The NCI Common Terminology Criteria for Adverse Events version 4.0 was used to grade adverse events. Tumor response was assessed by radiography at baseline and every 2 cycles thereafter and evaluated per RECIST version 1.1 [11]. Following determination of the maximum tolerated dose (MTD)/recommended phase 2 dose (RP2D), an additional 13 patients were enrolled on a RP2D expansion cohort for assessments of pharmacodynamic biomarkers in baseline and on-treatment tumor biopsies.
# DLTs were defined as toxicities that were at least possibly related to FdCyd or THU within the first cycle of treatment and met one of the following criteria: grade ≥ 3 non-hematological toxicity (including grade 3 nausea, vomiting, or diarrhea only if refractory to standard supportive care; grade 3 electrolyte toxicities only if unable to be corrected to ≤ grade 1 within 24 h; and tumor pain only if refractory to analgesics); grade 4 thrombocytopenia; or grade 4 neutropenia lasting ≥ 5 days or febrile neutropenia. […]
# [2] = cited from earlier work
# [3] = Plasma pharmacokinetics by LC-MS/MS; type: in vivo, human; settings: for THU AUC0-6/Dose / THU Cl/F / THU Cmax/Dose / Tmax / Vd/F / half-life / AUC(0-inf) / Cmax / AUC(0-t) / concentration at 24 h / concentration at 48 h: geom. mean (geom. SD); for Tmax: read-out: THU Tmax; for Vd/F: read-out: THU Vz/F; for half-life: read-out: THU t½ (converted); for AUC(0-inf): read-out: THU AUC0-inf; for Cmax: read-out: THU Cmax; for AUC(0-t): read-out: THU AUC0-6; for concentration at 24 h: read-out: THU Cmin24h; for concentration at 48 h: read-out: THU Cmin48h
# Description: (§1) Blood specimens for PK analysis were collected on Cycle 1 Day 1 (C1D1) prior to THU administration and then at 15, 30, and 45 min and 1, 2, 3, 4, 5, and 6 h after THU administration, as well as on C1D2 and C1D3 prior to and 2 h after THU administration. Urine specimens for PK analysis were collected on C1D1 prior to treatment and then at every void from 0 to 24 h after THU administration. All specimens for PK analysis were processed and analyzed by LC-MS/MS as described previously, and Phoenix WinNonlin software was used for data analysis.
# [4] = Urinary excretion by LC-MS/MS; type: in vivo, human; settings: geom. mean (geom. SD)
# Description: as §1
# [5] = test system: leukemias and myelodysplastic syndromes; design: method as in PMID 23671007; settings: specific indications of leukemias and myelodysplastic syndromes; cited from earlier work
# [6] = design: method as in PMID 21576646; settings: oral administration, phase 1 study; cited from earlier work
# [7] = DL1-DL9: THU 3000 mg oral once daily (n=44)
# [8] = DL10-DL11: THU 6000 mg oral twice daily (n=11)
# [9] = human, plasma, oral, Total, all dose levels (n=55)
# [10] = human, plasma, po, 3000 mg, DL1-DL9: THU 3000 mg oral once daily (n=44)
# [11] = human, plasma, po, 6000 mg, DL10-DL11: THU 6000 mg oral twice daily (n=11)
# [12] = human, plasma, DL1-DL9: THU 3000 mg oral once daily (n=44)
# [13] = human, plasma, DL10-DL11: THU 6000 mg oral twice daily (n=11)
smiles,measurement,setting,value
"O=C1NC(O)CCN1[C@@H]1O[C@H](CO)[C@@H](O)[C@H]1O (stereo partly drawn) [THU, tetrahydrouridine]","Maximum tolerated dose / RP2D, THU dose",[1],3000 mg
same,"THU bioavailability, previously established",[2],4.1%
same,"THU clearance, previous values","[2]; intravenous THU, ref previous clearance values",43 mL/min/m^2
same,THU exposure in patients who experienced a DLT vs those who did not,"[3]; AUC0−6 P = 0.007, Cmax P = 0.005, C24h P = 0.002, C48h P = 0.004",significantly higher THU exposures
same,THU AUC0-6/Dose,[3]; [7],2.25 (1.63) µg/L•h / mg
same,THU Cl/F,[3]; [7],142 L/h and 142 (1.8) L/h
same,THU Cmax/Dose,[3]; [7],505 (1.7) µg/L / g
same,THU AUC0-6/Dose,[3]; [8],1.79 (1.37) µg/L•h / mg
same,THU Cl/F,[3]; [8],190 (1.6) L/h
same,THU Cmax/Dose,[3]; [8],390 (1.4) µg/L / g
same,Increase in THU 24 and 48 h trough concentrations,"[3]; THU 6000 mg twice daily vs 3000 mg once daily, expected 4-fold",~10 fold
same,THU AUC0-6/Dose,"[3]; Total, all dose levels (n=55)",2.15 (1.60) µg/L•h / mg
same,THU Cl/F,"[3]; Total, all dose levels (n=55)",147 (1.7) L/h
same,THU Cmax/Dose,"[3]; Total, all dose levels (n=55)",480 (1.6) µg/L / g
same,THU plasma concentrations for the oral RP2D compared with the intravenous RP2D of 350 mg/m^2 THU,[3]; comparison with ref 8,9–13 % lower
same,Tmax,[3]; [9],~3 h
same,Vd/F,[3]; [9],1830 L
same,half-life,[3]; [9],8.7 h
same,bioavailability,"[3]; human, plasma, oral, from previous clearance (43 mL/min/m^2) vs current Cl/F (142 L/h), read-out: THU bioavailability in the current study",~3%
same,AUC(0-inf),[3]; [10],21100 ng·h/mL
same,Cmax,[3]; [10],1520 ng/mL
same,Tmax,[3]; [10],3 h
same,Vd/F,[3]; [10],1810 L
same,half-life,[3]; [10],8.8 h
same,AUC(0-inf),[3]; [11],31600 ng·h/mL
same,Cmax,[3]; [11],2340 ng/mL
same,Tmax,[3]; [11],3.2 h
same,Vd/F,[3]; [11],2040 L
same,half-life,"[3]; human, plasma, po, 6000 mg, DL10-DL11: THU 6000 mg oral twice daily, half-life determined for only 6 patients",7.4 h
same,AUC(0-t),[3]; [12],6750 ng·h/mL
same,concentration at 24 h,[3]; [12],260 ng/mL
same,concentration at 48 h,[3]; [12],330 ng/mL
same,AUC(0-t),[3]; [13],10800 ng·h/mL
same,concentration at 24 h,[3]; [13],2520 ng/mL
same,concentration at 48 h,[3]; [13],3170 ng/mL
same,THU urinary excretion over 0-24 hours of day 1,"[4]; All FdCyd doses + THU 3000 mg, N=42",2.1 (2.0) % dose
same,THU urinary excretion over 0-24 hours of day 1,"[4]; All FdCyd doses + THU 6000 mg, N=10",1.2 (2.5) % dose
same,THU urinary excretion over 0-24 hours of day 1,"[4]; DL1: FdCyd 30 mg + THU 3000 mg, N=3",2.9 (2.0) % dose
same,THU urinary excretion over 0-24 hours of day 1,"[4]; DL2: FdCyd 60 mg + THU 3000 mg, N=3",2.8 (1.6) % dose
same,THU urinary excretion over 0-24 hours of day 1,"[4]; DL3: FdCyd 90 mg + THU 3000 mg, N=3",2.1 (1.4) % dose
same,THU urinary excretion over 0-24 hours of day 1,"[4]; DL4: FdCyd 120 mg + THU 3000 mg, N=3",1.1 (4.8) % dose
same,THU urinary excretion over 0-24 hours of day 1,"[4]; DL5-9: FdCyd 160 mg + THU 3000 mg, N=30",2.1 (1.8) % dose
same,THU urinary excretion over 0-24 hours of day 1,"[4]; DL10: FdCyd 60 mg + THU 6000 mg, N=7",1.1 (2.9) % dose
same,THU urinary excretion over 0-24 hours of day 1,"[4]; DL11: FdCyd 80 mg + THU 6000 mg, N=3",1.6 (1.7) % dose
same,THU urinary excretion over 0-24 hours of day 1,"[4]; Total, all dose levels, N=52",1.9 (2.1) % dose
"Nc1ncn([C@H]2C[C@H](O)[C@@H](CO)O2)c(=O)n1 [decitabine, 5-aza-2’deoxycytidine]",Response rates,[5],> 50%
Nc1ncn([C@@H]2O[C@H](CO)[C@@H](O)[C@H]2O)c(=O)n1 [azacytidine],Response rates,[5],> 50%
same,Most common grade 3/4 toxicity and dose-limiting toxicity,[6],diarrhea
